{
  "source": "patent US11236046B2",
  "about": "“Substituted heterocyclic sulfonamide compounds useful as TRPA1 modulators” (Genentech, Inc., priority 2013, dated 2022)",
  "data": [
    {"test": "in vivo rat pharmacokinetic (PK) studies, plasma clearance", "details": "plasma, read-out: Rat PK Clp", "units": {"clearance": "L/h/kg"}, "values": [
      {"smiles": "O=C(NCc1cc(-c2ccc(C(F)(F)F)nc2)ncn1)[C@@H]1CC(F)(F)CN1S(=O)(=O)c1ccc(F)cc1", "note": "[(2S)-4,4-difluoro-1-(4-fluorophenyl)sulfonyl-N-[[6-[6-(trifluoromethyl)-3-pyridyl]pyrimidin-4-yl]methyl]pyrrolidine-2-carboxamide]", "clearance": 1.8},
      {"smiles": "O=C(NCc1cc(F)cc(-c2cnc(C(F)F)cn2)c1)[C@@H]1C[C@@H](F)CN1S(=O)(=O)c1ccc(F)cc1", "note": "[(2S,4R)-N-[[3-[5-(difluoromethyl)pyrazin-2-yl]-5-fluoro-phenyl]methyl] 4-fluoro-1-(4-fluorophenyl)sulfonyl-pyrrolidine-2-carboxamide]", "clearance": 0.594},
      {"smiles": "C[C@@]1(F)C[C@@H](C(=O)NCc2cc(-c3ccc(C(F)(F)F)nc3)ncn2)N(S(=O)(=O)c2ccc(F)cc2)C1", "note": "[(2S,4R)-4-fluoro-1-(4-fluorophenyl)sulfonyl-4-methyl-N-[[6-[6-(trifluoromethyl)-3-pyridyl]pyrimidin-4-yl]methyl]pyrrolidine-2-carboxamide]", "clearance": 0.678},
      {"smiles": "C[C@@]1(C(=O)NCc2cc(-c3ccc(C(F)(F)F)nc3)ncn2)C[C@@H](F)CN1S(=O)(=O)c1ccc(F)cc1", "note": "[(2S,4R)-4-fluoro-1-(4-fluorophenyl)sulfonyl-2-methyl-N-[[6-[6-(trifluoromethyl)-3-pyridyl]pyrimidin-4-yl]methyl]pyrrolidine-2-carboxamide]", "clearance": 0.9},
      {"smiles": "COc1nn(-c2ccc(C(F)(F)F)nc2)cc1CNC(=O)[C@@H]1C[C@@H](F)CN1S(=O)(=O)c1ccc(F)cc1", "note": "[(2S,4R)-4-fluoro-1-(4-fluorophenyl)sulfonyl-N-[[3-methoxy-1-[6-(trifluoromethyl)-3-pyridyl]pyrazol-4-yl]methyl]pyrrolidine-2-carboxamide]", "clearance": 0.78},
      {"smiles": "O=C(NCc1cc(-c2ccc(C(F)(F)F)nc2)ncn1)[C@@H]1CCCN1S(=O)(=O)c1ccc(F)cc1", "note": "[(2S)-1-(4-fluorophenyl)sulfonyl-N-[[6-[6-(trifluoromethyl)-3-pyridyl]pyrimidin-4-yl]methyl]pyrrolidine-2-carboxamide]", "clearance": 5.88},
      {"smiles": "O=C(NCc1cc(-c2cnc(C(F)(F)F)nc2)c(F)cn1)[C@@H]1C[C@@H](F)CN1S(=O)(=O)c1ccc(F)cc1", "note": "[(2S,4R)-4-fluoro-1-(4-fluorophenyl)sulfonyl-N-[[5-fluoro-4-[2-(trifluoromethyl)pyrimidin-5-yl]-2-pyridyl]methyl]pyrrolidine-2-carboxamide]", "clearance": 0.354},
      {"smiles": "O=C(NCc1cc(-c2ccc(C(F)(F)F)nc2)nc(-c2ccc(C(F)(F)F)nc2)c1)[C@@H]1C[C@@H](F)CN1S(=O)(=O)c1ccc(F)cc1", "note": "[(2S,4R)-N-[[2,6-bis[6-(trifluoromethyl)-3-pyridyl]-4-pyridyl]methyl]-4-fluoro-1-(4-fluorophenyl)sulfonyl-pyrrolidine-2-carboxamide]", "clearance": 0.546}
    ]}
  ]
}
